Where a name gives a salt, the structure may show the parent alone.
Tests used:
[1] = test system: sporadic PD patient fibroblasts; assay: Mitochondrial membrane potential (MMP, TMRM) in sporadic PD patient fibroblasts; format: cell-based; settings: Homo sapiens, Fibroblast, 24 h; for activity at 60 pM: read-out: MMP Bottom (% of vehicle treated); for activity at 0.3 µM: read-out: MMP Top (% of vehicle treated)
Procedure: (§1) Fibroblasts were cultured in DMEM (Invitrogen) and routinely subcultured every 3-5 days using trypsin to dissociate them.
Fibroblasts were cultured and plated into a Griener black 384 pClear® plate at 10000 cells per well in 50 μl of media volume. The plates are left overnight in an incubator to allow the fibroblasts to adhere to the plate surface. The following morning the Glucose based medium is replaced with 25 μl of Galactose based media. The plates were then dosed with the compounds using an ECHO® 550 liquid handling system. The wells were dosed to provide an 8-point concentration range of 0.06 nM-300 nM of compound. After dosing the wells are topped up with a further 25 μl of Galactose based medium and then left in an incubator for 24 hours. After 24 hours, the medium is removed from the wells and replaced with 25 ul phenol free Minimal essential medium with 100 nM TMRM (Sigma) and 10 μM Hoechst Stain (Sigma). The plate is returned to the incubator for another hour after which the stain medium is removed and replaced with 25 ul Phenol free MEM. The plate is then imaged using an IN Cell high content microscope (GE Healthcare) with 10 fields of view per well in 2 channels, Cy3 excitation 542 nm, emission 604-64 nm; and the DAPI excitation 350 nm, emission 450-55 nm at 37° C. with CO2. After imaging the plate is disposed of and the images are Data mined using the INCell developer Toolkit (GE Healthcare).
(§2) After the assays had been repeated in triplicate per line and compound the data was then inputted into Graph pad Prism 7 software suite where a dose response curve is generated using the default “[Agonist] vs response (three parameters)” equation.
(§3) From this EC50 values, lowest response and maximal response were taken and used to calculate the Geometric mean between the 5 different lines assessed.
The mitochondrial membrane potential was measured in fibroblasts from 6 (Table 1) or 3 (Table 2) patients with sporadic Parkinson's disease when treated with Compounds of the invention or Comparator compounds. The results are shown in Tables 1 and 2, where “Bottom”=max response with lowest dose of compound (0.06 nM) and “top”=max response with highest dose of compound (300 nM).

[2] = test system: sporadic PD patient fibroblasts; assay: Cellular ATP levels (ATPlite, normalised to CyQUANT DNA content) in sporadic PD patient fibroblasts; format: cell-based; settings: Homo sapiens, Fibroblast, 24 h; for activity at 60 pM: read-out: Cellular ATP levels Bottom (% of vehicle treated); for activity at 0.3 µM: read-out: Cellular ATP levels Top (% of vehicle treated)
Procedure: as §1
The ATP protocol is generally as described in Mortiboys et al, “Mitochondrial function and morphology are impaired in parkin-mutant fibroblasts”, Ann Neurol. 2008 November; 64(5):555-65. Briefly, fibroblasts were cultured as and plated into white 384 well plates with 5000 cells per well in 50 μl of media volume. The plates are left overnight in an incubator to allow the fibroblasts to adhere to the plate surface. The following morning the Glucose based medium is replaced with 25 μl of Galactose based medium. The compounds are added to the plates using a ECHO 550 liquid handling system. The wells were dosed to provide an 8-point concentration range of 0.06 nM-300 nM of compound. After dosing the wells are topped up with a further 25 μl of Galactose based medium and then left in an incubator for 24 hours. Following this incubation the medium is removed from the plate and the wells are washed twice with sterile PBS. The wells are filled with 25 μl of Sterile PBS followed by 12.5 μl of Lysis solution from the ATPlite™ Luminescence ATP detection assay system (Perkin Elmer), including 16 cell free wells to use as blank controls. The plate is then placed on a rotary shaker for 5 mins at 700 rpm. Following the shaking 12.5 μl of ATP substrate solution (Perkin Elmer) is added to each well and a further 5 min of shaking. The plate is then placed in darkness for 10 minutes prior to reading. Using a PHERAStar® plate reader, luminescence intensity is recorded. Following the ATP assay the plates are immediately assayed for DNA content in a CyQUANT® assay.
Immediately following The ATP assay DNA content is assessed with the CyQUANT® NF Cell Proliferation Assay Kit (ThermoFisher). CyQUANT® buffer is prepared immediately before the assay and is comprised of 1 ul CyQUANT® dye per ml×1 HBSS solution. 12.5 ul of CyQUANT® buffer is added to each well. Plate left in incubator for 1 hour then read on a PHERAStar® Plate reader with excitation at 497 nm and emission at 520 nm. ATP Quantification for each well is determined using the following formula: […]
as §2, §3
Cellular ATP levels were measured in fibroblasts from 6 (Table 3) or 3 (Table 4) patients with sporadic Parkinson's disease when treated with Compounds of the invention or Comparator compounds. The results are shown in Tables 3 and 4, where “Bottom”=max response with lowest dose of compound (0.06 nM) and “top”=max response with highest dose of compound (300 nM).

[3] = read-out: Cellular ATP levels EC50 (nM)
[4] = 3 sporadic PD patient fibroblasts, read-out: MMP EC50
[5] = max response with highest dose (300 nM), 3 sporadic PD patient fibroblasts
[6] = max response with lowest dose (0.06 nM), 3 sporadic PD patient fibroblasts
[7] = 3 sporadic PD patient fibroblasts, read-out: Cellular ATP levels EC50
[8] = 6 sporadic PD patient fibroblasts, read-out: MMP EC50
[9] = max response with highest dose (300 nM), 6 sporadic PD patient fibroblasts
[10] = max response with lowest dose (0.06 nM), 6 sporadic PD patient fibroblasts
[11] = 6 sporadic PD patient fibroblasts, read-out: Cellular ATP levels EC50

Compound | activity at 60 pM [1] | EC50 ([1]; read-out: MMP EC50 (nM)) | activity at 0.3 µM [1] | activity at 60 pM [2] | EC50 [2, 3] | activity at 0.3 µM [2] | also measured
C[C@H](CCC(=O)O)[C@H]1CC[C@H]2[C@@H]3[C@@H](O)C[C@@H]4C[C@H](O)C(F)(F)C[C@]4(C)[C@H]3CC[C@]12C [Compound 9, 2,2-difluoro-3α,7β-dihydroxy-5β-cholanic acid] | 110% | 2.19 nM | 112% | 99% | 21.3 nM | 103% | 
C[C@H](CCC(=O)N1CCC[C@H](C(=O)O)C1)[C@H]1CC[C@H]2[C@@H]3[C@@H](O)C[C@@H]4C[C@@H](O)C(F)(F)C[C@]4(C)[C@H]3CC[C@]12C [Compound 14, Sodium 1-(2,2-difluoro-3β,7β-dihydroxy-5β-cholan-24-oyl)-piperidine-3-carboxylate] | 94.3% | 18.9 nM | 167% | 107% | 1.3 nM | 127% | 
C[C@H](CCC(=O)NCC(=O)O)[C@H]1CCC2C3C(CC[C@@]21C)[C@@]1(C)CC(F)(F)[C@H](O)C[C@H]1C[C@@H]3O (stereo partly drawn) [Compound 17, Sodium N-(2,2-difluoro-3β,7β-dihydroxy-5β-cholan-24-amide)-methylcarboxylic acid] | 88.9% | 128 nM | 152% | 101% | 17.2 nM | 132% | 
C[C@H](CCC(=O)N(C)CCS(=O)(=O)O)[C@H]1CCC2C3C(CC[C@@]21C)[C@@]1(C)CC(F)(F)[C@H](O)C[C@H]1C[C@@H]3O (stereo partly drawn) [Compound 19, Sodium N-(methyl)-N-(2,2-difluoro-3β,7β-dihydroxy-5β-cholan-24-amide) ethylsulfonic acid] | 95.9% | 104 nM | 143% | 98.8% | 8.9 nM | 122% | 
C[C@H](CCC(=O)NCCCS(=O)(=O)O)[C@H]1CC[C@H]2[C@@H]3[C@@H](O)C[C@@H]4C[C@@H](O)C(F)(F)C[C@]4(C)[C@H]3CC[C@]12C [Compound 20, Sodium 3-(2,2-difluoro-3β,7β-dihydroxy-5β-cholan-24-oyl) amino-propanesulfonate] | 99.8% | 17.7 nM | 147% | 102% | 34.7 nM | 122% | 
C[C@H](CCC(=O)NCCOS(=O)(=O)O)[C@H]1CC[C@H]2[C@@H]3[C@@H](O)C[C@@H]4C[C@@H](O)C(F)(F)C[C@]4(C)[C@H]3CC[C@]12C [Compound 22, Sodium N-(2,2-difluoro-3β,7β-dihydroxy-5β-cholan-24-oyl)-2-aminoethyl sulfate] | 99.3% | 45.4 nM | 146% | 95.9% | 6.2 nM | 116% | 
C[C@H](CCC(=O)NCCS(C)(=O)=O)[C@H]1CC[C@H]2[C@@H]3[C@@H](O)C[C@@H]4C[C@@H](O)C(F)(F)C[C@]4(C)[C@H]3CC[C@]12C [Compound 27, N-(2,2-difluoro-3β,7β-dihydroxy-5β-cholan-24-oyl) 2-aminoethyl methyl sulfone] |  |  |  |  |  |  | EC50 [1, 4]: 171 nM; activity at 0.3 µM [1, 5]: 159%; activity at 60 pM [1, 6]: 103%; EC50 [2, 7]: 16.6 nM; activity at 0.3 µM [2, 5]: 114%; activity at 60 pM [2, 6]: 101%
C[C@H](CCC(=O)N1CCS(=O)(=O)CC1)[C@H]1CCC2C3C(CC[C@@]21C)[C@@]1(C)CC(F)(F)[C@H](O)C[C@H]1C[C@@H]3O (stereo partly drawn) [Compound 30, N-(2,2-difluoro-3β,7β-dihydroxy-5β-cholan-24-oyl)-thiomorpholine-dioxide] |  |  |  |  |  |  | EC50 [1, 4]: 21 nM; activity at 0.3 µM [1, 5]: 156%; activity at 60 pM [1, 6]: 98.4%; EC50 [2, 7]: 4.2 nM; activity at 0.3 µM [2, 5]: 115%; activity at 60 pM [2, 6]: 96.7%
C[C@H](CCC(=O)NC1CCCS(=O)(=O)C1)[C@H]1CC[C@H]2[C@@H]3[C@@H](O)C[C@@H]4C[C@@H](O)C(F)(F)C[C@]4(C)[C@H]3CC[C@]12C (stereo partly drawn) [Compound 31, N-(2,2-difluoro-3β,7β-dihydroxy-5β-cholan-24-oyl) 1,1-dioxidotetrahydro-2H-thiopyran-3-ylamine] |  |  |  |  |  |  | EC50 [1, 4]: 5.5 nM; activity at 0.3 µM [1, 5]: 151%; activity at 60 pM [1, 6]: 99.6%; EC50 [2, 7]: 13.3 nM; activity at 0.3 µM [2, 5]: 133%; activity at 60 pM [2, 6]: 108%
C[C@H](CCC(=O)O)[C@H]1CC[C@H]2[C@@H]3C(=O)C[C@@H]4CC(=O)C(F)(F)C[C@]4(C)[C@H]3CC[C@]12C [Compound E, 2,2-difluoro-3,7-dioxo-5β-cholanic acid, reference compound] |  |  |  |  |  |  | EC50 [1, 8]: 23.3 nM; activity at 0.3 µM [1, 9]: 112%; activity at 60 pM [1, 10]: 105%; EC50 [2, 11]: 18.8 nM; activity at 0.3 µM [2, 9]: 136%; activity at 60 pM [2, 10]: 81.6%
C[C@H](CCC(=O)O)[C@H]1CC[C@H]2[C@@H]3[C@@H](O)C[C@@H]4C[C@@H](O)C(F)=C[C@]4(C)[C@H]3CC[C@]12C [Compound F, 2-fluoro-3β,7β-dihydroxy-5β-chol-1-enic acid, reference compound] |  |  |  |  |  |  | EC50 [1, 8]: 0.674 nM; activity at 0.3 µM [1, 9]: 108%; activity at 60 pM [1, 10]: 110%; EC50 [2, 11]: 1.91 nM; activity at 0.3 µM [2, 9]: 112%; activity at 60 pM [2, 10]: 99.9%
C[C@H](CCC(=O)O)[C@H]1CC[C@H]2[C@@H]3C(=O)C[C@@H]4CC(=O)C(F)=C[C@]4(C)[C@H]3CC[C@]12C [Compound G, 2-fluoro-3,7-dioxo-5β-chol-1-enic acid, reference compound] |  |  |  |  |  |  | EC50 [1, 8]: 282 nM; activity at 0.3 µM [1, 9]: 123%; activity at 60 pM [1, 10]: 103%; EC50 [2, 11]: 58.4 nM; activity at 0.3 µM [2, 9]: 92.7%; activity at 60 pM [2, 10]: 83.3%

From patent US20220073557A1, “FLUORINATED BILE ACIDS” (NZP UK LIMITED, priority 2018, published 2022)
